The source of these data is patent publication US12714725B2, “Stabilization of selenite in a nutritional solution by dissolved oxygen” (BAXTER INTERNATIONAL INC., priority 2019, dated 2026).

The conditions of series [1]: cited from earlier work.
Series [2] in a line: Stability of a mix of the 9 TE at pH 2.2 with 200 mM malic acid in a glass bottle. The format is physicochemical. The note with it: heat sterilized, about 3 ppm dissolved oxygen; for Concentration recovered, T6 M 5° C. / Percentage of the recovered TE, T6 M 5° C.: 6 months at 5° C.; for Concentration recovered, T6 M 5° C. / Concentration recovered, T6 M 40° C.: pH 2.2, 200 mM malic acid; for Percentage of the recovered TE, T6 M 5° C. / Percentage of the recovered TE, T6 M 40° C.: relative to theoretical concentration; for Concentration recovered, T6 M 40° C. / Percentage of the recovered TE, T6 M 40° C.: 6 months at 40° C. The procedure:
The presence of oxygen promotes selenite stability. To ensure that it is not deleterious to another TE the stability of a mix of the 9 TE of interest (i.e. Zn, Cu, Cr, Mo, Mn, Fe, I, F & Se) was evaluated at pH 2.2 with 200 mM of malic acid (to ensure Iodide stability) and stored in a glass bottle (so containing about 3 ppm of dissolved oxygen). The solution was heat sterilized and stored 6 months at 40° C. or 5° C. (T6M 40° C. and T6M 5° C., respectively).

The nature of series [3]: Full factorial DoE on the stability of Selenite (container material, pH, sterilization, storage temperature, dissolved oxygen). The format is physicochemical. The procedure:
A full factorial DoE was designed to evaluate the impact of five factors on the stability of Selenite:
Container material: an interaction between Selenite and plastic bags material was previously highlighted. To evaluate this factor a neutral material i.e. glass bottles was used as a comparison to plastic bags.
pH of the solution: all previous studies were conducted at pH<3.5 to ensure stability of Fe. A comparison with a native pH>7 obtained by simple dilution of Selenite into MilliQ water allowed to evaluate the impact of this parameter.
Sterilization: the terminal heat sterilization conducted on samples may initiate degradative chemical reactions by heat exposure. Unsterilized VS sterilized samples were compared regarding Selenite stability to assess the impact of this process step.
Storage temperature: accelerated stability studies are classically conducted at 40° C. However, selenite might be sensitive to it and a comparison with samples stored at 5° C. was conducted.
Dissolved oxygen content: oxygen is involved in many redox reactions most of the time deleterious for macro and micronutrients (particularly vitamins). To assess the impact of this parameter on Selenite stability, solutions of Selenite were flushed either with oxygen (up to saturation at about 8 ppm) or with nitrogen (DO<0.5 ppm).
All combinations of factors were produced and stored under appropriate conditions for 6 months. They were then submitted to several tests to evaluate the impact of each factor on several responses.
The following readouts were performed in order to assess the impact of the factors listed above:
Se assay to evaluate the degradation of Selenium.
Visual inspection of the samples to detect any precipitate, particles or discoloration.
pH measurement to evaluate the evolution of sample pH after 6 months storage.
Dissolved oxygen measurement to evaluate the evolution of the dissolved oxygen after 6 months of storage. […]

In the case of `[Cl][Cr]([Cl])[Cl]` [Cr, chromium chloride], in series [1], the “Chemical form; Solubility in water” value is 585 mg/mL. Further, in series [2], the “Concentration recovered, T6 M 5° C.” value came out at 306 ng/mL; the “Percentage of the recovered TE, T6 M 5° C.” value (from here on “Percentage … T6 M 5° C.”) came out at 77.3%; the “Concentration recovered, T6 M 40° C.” value amounted to 329 ng/mL; the “Percentage of the recovered TE, T6 M 40° C.” value (from here on “Percentage … T6 M 40° C.”) amounted to 83.1%.
With `[Cl][Cu][Cl]` [Cu, copper chloride], in series [1], the “Chemical form; Solubility in water” value is 706 mg/mL. In series [2], the “Concentration recovered, T6 M 5° C.” value worked out at 9784 ng/mL; the “Percentage … T6 M 5° C.” value is given as 81.1%; the “Concentration recovered, T6 M 40° C.” value came to 10504 ng/mL; the “Percentage … T6 M 40° C.” value is on record as 87.1%.
As to `[F-].[Na+]` [F, sodium fluoride], in series [2], the “Percentage … T6 M 5° C.” value was 94% and the “Percentage … T6 M 40° C.” value is 88%.
As for `[I-].[K+]` [I, potassium iodide], in series [2], the “Concentration recovered, T6 M 5° C.” value came to 3167 ng/mL; the “Percentage … T6 M 5° C.” value came out at 78.6%; the “Concentration recovered, T6 M 40° C.” value came to 3401 ng/mL; the “Percentage … T6 M 40° C.” value is 84.4%.
The matching figures for `[Na+].[Na+].[O]=[Mo](=[O])([O-])[O-]` [Mo, sodium molybdate]: 653 ng/mL, 79.9%, 707 ng/mL and 86.6%.
Consider `O=[Se](O)O` [Selenite, sodium selenite], for which the Stability in solution entry was “instable” in series [3] (absence of stable amount of DO in the said range, storage for more than 1-3 months) and “stable” in series [3] (products with stable DO concentration of above 0.5 ppm, specifically 0.5 ppm to 8 ppm). Moreover, in series [3] (regression of Se assay against log dissolved oxygen, sterilized samples stored at 40° C. (FIG. 2)), the “Oxygen amount sufficient to ensure the stability of Selenite in solution” value is reported as “around 0.5 ppm”.
`[Cl-].[Cl-].[Zn+2]` [Zn, zinc chloride]: in series [1], the “Chemical form; Solubility in water” value was 4.32 kg/L. Also, in series [2], the “Concentration recovered, T6 M 5° C.” value was determined as 158347 ng/mL; the “Percentage … T6 M 5° C.” value is reported as 77.8%; the “Concentration recovered, T6 M 40° C.” value stood at 171822 ng/mL; the “Percentage … T6 M 40° C.” value amounted to 84.4%.
